Columns and labels:
ALK = ALK (Homo sapiens, UniProt Q9UM73); test: ALK kinase activity inhibition, Caliper mobility shift assay, method 2; assay type: biochemical; settings: ALK 1.25 nM, ATP 30 μM
Description: 2. ALK Kinase Activity Inhibition Experiment:
Method 2: Caliper mobility shift assay was used to measure ALK protein kinase activity. The method is basically the same as method 1, with individual parameters adjusted. The initial concentration of the compound is 1 mM, and sequentially diluted 4-fold to make 6 points (7 points for some individual compounds). Use a dispenser Echo 550 to transfer 250 nL of 100-fold final concentration of the compound to the target plate 3573, add 10 μL ALK with final concentration of 1.25 nM, incubate at room temperature for 10 minutes (the negative control well contains 10 μL kinase buffer and 250 nL 100% DMSO; the positive control well contains 10 μL kinase solution and 250 nL 100% DMSO). On the kinase ALK, add 15 μL of ATP with a final concentration of 30 μM and 3 μM of the substrate peptide No. 22 mixed solution to react for 25 minutes; add 30 μL of stop detection solution containing EDTA to stop the kinase reaction. Use Caliper EZ Reader to read the conversion rate. Inhibition rate %=(Average positive control conversion rate %−Sample conversion rate %/(Average positive control conversion rate %−Average negative control conversion rate %). Among them: negative control wells represent the conversion rate readings without enzyme activity; positive control wells represent the conversion rate readings of wells without compound inhibition. Take the log value of the concentration as the X-axis, and the percentage inhibition rate on the Y-axis. Log (inhibitor) vs. response—Variable slope of analysis software GraphPad Prism 5 was used to fit the curve to obtain the IC50 value of each compound on the enzyme activity. Calculation formula: Y=Bottom+(Top−Bottom)/(1+10^((Log IC50−X)*HillSlope)).

EGFR (T790M/L858R/C797S) = EGFR (T790M/L858R/C797S) (Homo sapiens, UniProt P00533, C797S/L858R/T790M); test: EGFR (T790M/L858R/C797S) kinase activity inhibition, Caliper mobility shift assay; assay type: biochemical; settings: kinase 2.5 nM, ATP 40 μM
Sequence of EGFR (T790M/L858R/C797S) (P00533 25-1210 T790M/C797S/L858R): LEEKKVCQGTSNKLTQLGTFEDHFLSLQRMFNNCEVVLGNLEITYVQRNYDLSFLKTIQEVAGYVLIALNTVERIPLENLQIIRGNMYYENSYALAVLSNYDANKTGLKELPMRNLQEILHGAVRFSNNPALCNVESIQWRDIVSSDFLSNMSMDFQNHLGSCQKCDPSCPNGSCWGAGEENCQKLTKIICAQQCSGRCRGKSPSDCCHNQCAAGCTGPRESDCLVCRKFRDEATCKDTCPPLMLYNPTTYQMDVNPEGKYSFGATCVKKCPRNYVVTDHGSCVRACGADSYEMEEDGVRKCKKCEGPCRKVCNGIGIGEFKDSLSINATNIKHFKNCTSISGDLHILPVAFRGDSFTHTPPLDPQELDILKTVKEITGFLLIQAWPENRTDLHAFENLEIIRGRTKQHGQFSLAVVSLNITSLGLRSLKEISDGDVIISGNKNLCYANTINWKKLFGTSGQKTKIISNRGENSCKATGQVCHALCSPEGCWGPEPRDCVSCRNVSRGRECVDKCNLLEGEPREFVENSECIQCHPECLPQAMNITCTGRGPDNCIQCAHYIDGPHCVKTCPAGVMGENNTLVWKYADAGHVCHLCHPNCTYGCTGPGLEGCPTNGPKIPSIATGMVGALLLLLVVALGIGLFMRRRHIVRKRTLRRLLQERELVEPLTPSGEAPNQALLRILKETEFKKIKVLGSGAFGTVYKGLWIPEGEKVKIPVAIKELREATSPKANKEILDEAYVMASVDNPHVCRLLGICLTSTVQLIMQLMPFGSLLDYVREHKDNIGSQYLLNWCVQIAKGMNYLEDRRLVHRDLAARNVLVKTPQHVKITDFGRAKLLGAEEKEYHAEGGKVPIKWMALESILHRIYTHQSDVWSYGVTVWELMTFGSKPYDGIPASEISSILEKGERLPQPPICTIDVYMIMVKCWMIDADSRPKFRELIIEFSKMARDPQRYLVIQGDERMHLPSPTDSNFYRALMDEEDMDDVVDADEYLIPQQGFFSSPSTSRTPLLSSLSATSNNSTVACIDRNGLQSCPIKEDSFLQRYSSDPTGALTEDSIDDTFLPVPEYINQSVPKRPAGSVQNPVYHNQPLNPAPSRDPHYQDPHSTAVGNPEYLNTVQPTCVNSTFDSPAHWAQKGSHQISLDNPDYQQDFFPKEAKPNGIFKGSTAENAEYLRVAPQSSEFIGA
Description: The basic method is the same as ALK activity test method 2. The test concentration of the compound starts at 2 μM, and is diluted 5 folds into 6 (7 for individual compounds) concentration points. […] Add 30 μL of stop solution containing EDTA to stop the kinase reaction. Use Caliper EZ Reader to read the conversion rate. Inhibition rate %=(Average positive control conversion rate %−Sample conversion rate %/(Average positive control conversion rate %−Average negative control conversion rate %). Among them: negative control wells represent the conversion rate readings without enzyme activity; positive control wells represent the conversion rate readings of wells without compound inhibition. Take the log value of the concentration as the X-axis, and the percentage inhibition rate on the Y-axis. Log (inhibitor) vs. response—Variable slope of analysis software GraphPad Prism 5 was used to fit the curve to obtain the IC50 value of each compound on the enzyme activity. Calculation formula: Y=Bottom+(Top−Bottom)/(1+10^((Log IC50−X)*HillSlope)).

MAP4K1 (HPK1) = MAP4K1 (HPK1) (Homo sapiens, UniProt Q92918); test: MAP4K1 (HPK1) kinase activity inhibition, Caliper mobility shift assay; assay type: biochemical; settings: kinase 1.25 nM, ATP 10.1 μM
Sequence of MAP4K1 (HPK1) (Q92918 whole entry): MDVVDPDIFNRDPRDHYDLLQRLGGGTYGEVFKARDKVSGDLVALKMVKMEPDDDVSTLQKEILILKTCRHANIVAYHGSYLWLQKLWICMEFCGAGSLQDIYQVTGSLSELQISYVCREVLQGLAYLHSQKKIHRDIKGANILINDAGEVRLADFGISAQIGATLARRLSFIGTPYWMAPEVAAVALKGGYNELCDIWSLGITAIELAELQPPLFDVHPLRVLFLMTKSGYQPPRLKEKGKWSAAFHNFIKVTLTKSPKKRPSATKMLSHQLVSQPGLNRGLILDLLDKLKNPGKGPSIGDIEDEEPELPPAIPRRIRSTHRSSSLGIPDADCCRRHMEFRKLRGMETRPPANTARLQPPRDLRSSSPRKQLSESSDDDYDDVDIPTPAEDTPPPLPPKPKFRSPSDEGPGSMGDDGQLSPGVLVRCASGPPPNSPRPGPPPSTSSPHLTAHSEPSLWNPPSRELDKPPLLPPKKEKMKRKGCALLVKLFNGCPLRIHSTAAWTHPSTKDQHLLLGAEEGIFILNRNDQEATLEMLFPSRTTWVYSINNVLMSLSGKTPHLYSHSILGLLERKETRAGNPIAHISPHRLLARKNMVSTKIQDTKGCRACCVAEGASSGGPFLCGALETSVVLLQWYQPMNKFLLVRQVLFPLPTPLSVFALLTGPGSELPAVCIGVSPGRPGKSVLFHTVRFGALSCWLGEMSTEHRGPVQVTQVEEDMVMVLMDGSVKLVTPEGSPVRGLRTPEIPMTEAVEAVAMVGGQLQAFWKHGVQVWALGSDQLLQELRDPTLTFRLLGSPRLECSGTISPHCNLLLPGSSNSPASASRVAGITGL
Description: 4. MAP4K1 (HPK1) Kinase Activity Inhibition Experiment: Caliper mobility shift assay was used to detect the inhibitory effect of the compound on MAP4K1 (HPK1) kinase activity. The test concentration of the compound starts at 500 nM, and is diluted 5 folds into 5 concentration points. Use a dispenser Echo 550 to transfer 250 nL 100-fold final concentration of the compound to the target plate 3573, add 10 μL of MAP4K1 (HPK1) kinase solution with a final concentration of 1.25 nM, and incubate for 10 minutes at room temperature (the negative control well contains 10 μL kinase buffer and 250 nL 100% DMSO; the positive control well contains 10 μL kinase solution and 250 nL 100% DMSO). On the kinase MAP4K1 (HPK1), add 15 μL of ATP with a final concentration of 10.1 μM and 3 μM substrate peptide No. 25 mixed solution to react for 120 minutes. Add 30 μL of stop solution containing EDTA to stop the kinase reaction. Use Caliper EZ Reader to read the conversion rate. Inhibition rate %=(Average positive control conversion rate %−Sample conversion rate %/(Average positive control conversion rate %−Average negative control conversion rate %). Among them: negative control wells represent the conversion rate readings without enzyme activity; positive control wells represent the conversion rate readings of wells without compound inhibition. Take the log value of the concentration as the X-axis, and the percentage inhibition rate on the Y-axis. Log (inhibitor) vs. response—Variable slope of analysis software GraphPad Prism 5 was used to fit the curve to obtain the IC50 value of each compound on the enzyme activity. Calculation formula: Y=Bottom+(Top−Bottom)/(1+10 ^((Log IC50−X)*HillSlope)).

[1] = target: T1, Ba/F3_EGFR del19/T790M/C797S cells (Homo sapiens, UniProt P00533, T790M/C797S, cells depend on it, form not given); test: Ba/F3_EGFR (del19-T790M-C797S) cell proliferation inhibition, CTG, method 1; assay type: cell-based; settings: 700 cells/well, 72 h, read-out: Ba/F3_EGFR (del19-T790M-C797S) cell proliferation inhibition (IC50 value) Method 1
T1 sequence (P00533 with tags, fused parts or gaps DEL746-750/T790M/C797S, form open): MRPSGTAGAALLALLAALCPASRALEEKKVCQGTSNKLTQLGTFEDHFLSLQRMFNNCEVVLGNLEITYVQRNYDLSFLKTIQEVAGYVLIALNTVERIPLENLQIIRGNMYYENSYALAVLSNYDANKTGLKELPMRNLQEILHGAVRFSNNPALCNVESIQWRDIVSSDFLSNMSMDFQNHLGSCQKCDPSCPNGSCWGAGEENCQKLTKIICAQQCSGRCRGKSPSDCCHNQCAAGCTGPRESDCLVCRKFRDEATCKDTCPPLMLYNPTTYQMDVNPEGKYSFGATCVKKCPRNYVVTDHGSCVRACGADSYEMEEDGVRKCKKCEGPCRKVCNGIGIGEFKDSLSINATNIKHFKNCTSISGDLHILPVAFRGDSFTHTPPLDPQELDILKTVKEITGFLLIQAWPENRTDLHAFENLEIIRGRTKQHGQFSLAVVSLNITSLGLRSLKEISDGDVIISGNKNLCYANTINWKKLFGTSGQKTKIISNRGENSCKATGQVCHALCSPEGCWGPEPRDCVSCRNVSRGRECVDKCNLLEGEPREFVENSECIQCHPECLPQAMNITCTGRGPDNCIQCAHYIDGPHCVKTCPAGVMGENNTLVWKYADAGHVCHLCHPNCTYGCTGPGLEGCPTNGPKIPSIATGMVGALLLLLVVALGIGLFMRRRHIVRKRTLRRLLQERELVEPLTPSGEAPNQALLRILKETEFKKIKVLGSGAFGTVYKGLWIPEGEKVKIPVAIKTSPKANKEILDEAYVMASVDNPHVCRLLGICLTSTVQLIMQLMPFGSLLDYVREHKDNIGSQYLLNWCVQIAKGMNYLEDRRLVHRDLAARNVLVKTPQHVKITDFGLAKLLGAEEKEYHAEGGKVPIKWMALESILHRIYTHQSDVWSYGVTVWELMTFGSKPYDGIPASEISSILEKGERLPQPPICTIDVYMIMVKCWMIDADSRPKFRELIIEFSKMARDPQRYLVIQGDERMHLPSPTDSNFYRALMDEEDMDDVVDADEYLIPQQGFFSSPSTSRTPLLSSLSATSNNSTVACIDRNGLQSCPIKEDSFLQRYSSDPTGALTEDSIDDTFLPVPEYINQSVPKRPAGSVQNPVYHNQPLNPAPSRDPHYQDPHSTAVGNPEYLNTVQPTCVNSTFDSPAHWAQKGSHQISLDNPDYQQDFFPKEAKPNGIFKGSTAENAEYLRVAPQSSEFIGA
Description: The cells were cultured in a 37° C., 5% CO2 incubator.
Cell plating and compound treatment: 1) Cells are routinely cultured until the cell saturation is 80%-90%, and when the number reaches the requirement, the cells are collected. 2) Resuspend in the corresponding fresh medium, take a small amount of cells to count, and prepare a cell suspension with a suitable density. 3) Inoculate the cell suspension into a 384-well plate at 700 cells/well, 30 μL per well. 4) Use Echo to add the compound to the corresponding cell well. The maximum starting concentration of the compound is 1-10 μM, 3 folds dilution, 8 concentrations.
CTG method detection: 1) Add 30 μL of CTG reagent (CelltiterGlo kit) to each well, and let it stand for 30 minutes at 37° C. and 5% CO2 in the dark. 2) Use Envision instrument to read the chemiluminescence signal value.
Data analysis: IC50 results are analyzed by GraphPad Prism 6 software. […] X: log value of compound concentration; Y: inhibition rate (% inhibition); inhibition rate (% inhibition)=(blank control well reading−compound well reading)/(blank control well reading−positive control reading)×100.

[2] = Pharmacokinetic study in rats after intragastrical administration; assay type: in vivo; settings: male, rat, plasma, po, SD rats, 3 mg/kg; for AUC(0-t): read-out: AUC0-24 h
Description: Example 55: Pharmacokinetic Study in Rats
Instruments: XEVO TQ-S LC/MS instrument produced by Waters. All measurement data is collected and processed by Masslynx V4.1 software, and the data is calculated and processed by Microsoft Excel. Using WinNonLin 8.0 software, the statistical moment method was used to calculate the pharmacokinetic parameters. Mainly include kinetic parameters Tmax, T1/2, Cmax, AUClast etc. […] Injection volume: 5 μL.
Animals: 3 male SD rats with a weight range of 200-220 g. After purchase, they will be kept in the laboratory of the Experimental Animal Center for 2 days and then used. They will be fasted for 12 hours predose and 4 hours after dosing. Drinking water is free during the test. After the rats were gavage, blood samples were taken according to the established time point.
Solvent: 0.5% Methylcellulose (aqueous solution containing 0.4% Tween 80 and 1% ethanol). Preparation of the solution for intragastrical administration: accurately weigh the compound, add it to the solvent, and ultrasonically at room temperature for 5 minutes to completely dissolve the drug, and prepare a 0.3 mg/ml medicinal solution.
Pharmaceutical samples: representative compounds of the structure shown in the patented formula (I) of the present invention, generally, multiple samples with similar structures (with a molecular weight difference of more than 2 units) are taken, accurately weighed, and administered together (cassette PK). In this way, multiple compounds can be screened at the same time and their oral absorption rates can be compared. A single administration was also used to study the pharmacokinetics of the drug sample in rats.
After intragastrical administration, blood was taken from the orbit at 0.25, 0.5, 1, 2, 4, 9, 12 and 24 hours, and placed in a plastic centrifuge tube pretreated with sodium heparin. After centrifugation, the supernatant plasma was used for LC-MS/MS analysis.
Accurately weigh the compounds to prepare different concentrations, perform quantitative analysis on mass spectrometry to establish a standard curve, and then test the concentration of the above-mentioned compound in the plasma to obtain the compound concentration at different time points. All measurement data are collected and processed by relevant software, and the statistical moment method is used to calculate the pharmacokinetic parameters (mainly including kinetic parameters Tmax, T1/2, Cmax, AUClast etc). The results are as follows:
Table 7: Pharmacokinetic Parameters of the Compounds after Intragastrical Administration in SD Rats

[3] = target: T1, Ba/F3_EGFR del19/T790M/C797S cells; test: Ba/F3_EGFR (del19-T790M-C797S) cell proliferation inhibition, CTG, method 2; assay type: cell-based; settings: 2000 cells/well, 72 h, read-out: Ba/F3_EGFR (del19-T790M-C797S) cell proliferation inhibition (IC50 value) Method 2
Description: Take a small amount of cells and count them with ViCell. 2) Adjust the cell density, inoculate the cells in a 384-well plate at 2000/well, and incubate in a 37° C., 5% CO2 incubator for 4 hours. 3) Set up the program of Tecan HP D300, add the compound to the well plate. The maximum initial concentration of the compound is 1-4 μM, 3 folds dilution, 9 concentrations, and the DMSO content in each well is unified to 0.2%.
CTG method detection: 1) Take out the CTG reagent and cell plate and equilibrate at room temperature for 30 min, add 25 μL CTG to each well, shake at medium speed for 2 min, centrifuge at 1000 rpm for 1 minutes, and stand still at room temperature for 10 minutes. 2) Envision instrument reads the chemiluminescence signal value.
Data analysis: IC50 results are analyzed by IDBS's XL-fit 5.0 software.

Sequence of ALK (Q9UM73 19-1620): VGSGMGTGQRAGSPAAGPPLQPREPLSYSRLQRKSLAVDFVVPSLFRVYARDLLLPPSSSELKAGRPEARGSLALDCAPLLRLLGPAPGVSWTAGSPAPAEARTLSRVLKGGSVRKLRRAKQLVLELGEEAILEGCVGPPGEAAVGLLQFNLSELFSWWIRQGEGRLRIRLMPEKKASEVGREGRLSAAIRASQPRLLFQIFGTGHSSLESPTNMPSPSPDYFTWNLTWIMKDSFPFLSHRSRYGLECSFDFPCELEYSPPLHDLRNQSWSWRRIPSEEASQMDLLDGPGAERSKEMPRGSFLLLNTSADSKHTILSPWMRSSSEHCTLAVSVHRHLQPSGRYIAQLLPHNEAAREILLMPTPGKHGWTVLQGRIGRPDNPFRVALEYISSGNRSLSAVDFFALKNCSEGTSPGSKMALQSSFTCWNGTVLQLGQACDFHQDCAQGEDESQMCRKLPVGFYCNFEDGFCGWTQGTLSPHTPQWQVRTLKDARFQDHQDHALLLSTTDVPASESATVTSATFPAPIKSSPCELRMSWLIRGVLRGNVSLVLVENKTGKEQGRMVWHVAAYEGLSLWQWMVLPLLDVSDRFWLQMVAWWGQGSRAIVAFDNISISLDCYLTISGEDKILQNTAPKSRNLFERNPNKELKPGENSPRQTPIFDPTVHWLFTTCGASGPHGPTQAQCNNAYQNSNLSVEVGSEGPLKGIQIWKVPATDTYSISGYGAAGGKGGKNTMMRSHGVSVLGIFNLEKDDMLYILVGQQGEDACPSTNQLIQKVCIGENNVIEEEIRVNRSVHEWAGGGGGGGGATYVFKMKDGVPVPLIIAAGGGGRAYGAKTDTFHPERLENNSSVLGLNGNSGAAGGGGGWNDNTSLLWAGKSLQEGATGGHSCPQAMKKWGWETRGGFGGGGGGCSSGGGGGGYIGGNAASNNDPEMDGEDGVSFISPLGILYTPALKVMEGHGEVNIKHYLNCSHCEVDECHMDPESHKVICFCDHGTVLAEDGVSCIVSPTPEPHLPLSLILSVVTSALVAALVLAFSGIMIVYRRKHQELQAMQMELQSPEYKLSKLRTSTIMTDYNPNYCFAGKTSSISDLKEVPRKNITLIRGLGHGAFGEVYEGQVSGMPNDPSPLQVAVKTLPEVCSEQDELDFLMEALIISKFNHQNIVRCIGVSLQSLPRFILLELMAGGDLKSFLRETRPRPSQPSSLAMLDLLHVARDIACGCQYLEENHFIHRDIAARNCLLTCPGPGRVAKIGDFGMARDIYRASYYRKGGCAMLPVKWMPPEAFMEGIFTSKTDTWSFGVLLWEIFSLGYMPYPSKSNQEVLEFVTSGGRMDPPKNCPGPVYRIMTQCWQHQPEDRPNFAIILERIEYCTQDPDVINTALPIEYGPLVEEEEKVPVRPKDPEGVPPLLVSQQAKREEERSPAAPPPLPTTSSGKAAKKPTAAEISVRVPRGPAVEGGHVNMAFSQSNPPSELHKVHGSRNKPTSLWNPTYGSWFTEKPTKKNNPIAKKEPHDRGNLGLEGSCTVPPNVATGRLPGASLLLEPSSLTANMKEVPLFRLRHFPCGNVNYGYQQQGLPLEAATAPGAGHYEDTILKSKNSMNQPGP

SMILES | IC50 (ALK) | IC50 (EGFR (T790M/L858R/C797S)) | IC50 (MAP4K1 (HPK1)) | GI50 [1] | Cmax [2] | Tmax [2] | half-life [2] | AUC(0-t) [2] | GI50 [3]
CC(=O)N1CCC(N2CCN3c4c(C)cc(Nc5ncc(Cl)c(Nc6ccccc6P(C)(C)=O)n5)cc4OC[C@H]3C2)CC1 [Compound 32R] | 1 to 50 nM | < 3 nM | ≤ 1 nM | – | 306 ng/mL | 2 h | 1.95 h | 3420 ng·h/mL | 20 to 100 nM
Cc1cc(Nc2ncc(Cl)c(Nc3ccccc3P(C)(C)=O)n2)cc2c1N1CCN(C3CCN(C4CC4)CC3)C[C@@H]1CO2 [Compound 33R] | – | < 3 nM | ≤ 1 nM | – | 120 ng/mL | 7.33 h | 3.88 h | 1780 ng·h/mL | 20 to 100 nM
CN1CCC(N2CCN3c4c(F)cc(Nc5ncc(Cl)c(Nc6ccccc6P(C)(C)=O)n5)cc4OC[C@@H]3C2)CC1 [Compound 35S] | – | < 3 nM | ≤ 1 nM | – | 15 ng/mL | 4.33 h | 3.97 h | 179 ng·h/mL | 20 to 100 nM

Other lines, results leading:

IC50 (ALK) | IC50 (EGFR (T790M/L858R/C797S)) | IC50 (MAP4K1 (HPK1)) | GI50 [1] | Cmax [2] | Tmax [2] | half-life [2] | AUC(0-t) [2] | GI50 [3] | SMILES
1 to 50 nM | < 3 nM | ≤ 1 nM | < 20 nM | 61.4 ng/mL | 6.33 h | 6.75 h | 585 ng·h/mL | – | Cc1cc(Nc2ncc(Cl)c(Nc3ccccc3P(C)(C)=O)n2)cc2c1N1CCN(C)C[C@@H]1CO2 [Compound 25R]
1 to 50 nM | 3 to 15 nM | ≤ 1 nM | < 20 nM | – | – | – | – | – | C=CC(=O)N1CCN2c3c(C)cc(Nc4ncc(Cl)c(Nc5ccccc5P(C)(C)=O)n4)cc3OC[C@H]2C1 [Compound 26R]
1 to 50 nM | < 3 nM | ≤ 1 nM | – | 140 ng/mL | 10 h | 5.2 h | 2100 ng·h/mL | < 20 nM | Cc1cc(Nc2ncc(Cl)c(Nc3ccccc3P(C)(C)=O)n2)cc2c1N1CCN(C3CCN(C)CC3)C[C@H]1CO2 [Compound 27S]
1 to 50 nM | < 3 nM | ≤ 1 nM | – | – | – | – | – | 20 to 100 nM | CCN1CCC(N2CCN3c4c(C)cc(Nc5ncc(Cl)c(Nc6ccccc6P(C)(C)=O)n5)cc4OC[C@H]3C2)CC1 [Compound 30R]
1 to 50 nM | < 3 nM | ≤ 1 nM | – | 78.4 ng/mL | 6.33 h | 5.18 h | 687 ng·h/mL | 20 to 100 nM | Cc1cc(Nc2ncc(Cl)c(Nc3ccccc3P(C)(C)=O)n2)cc2c1N1CCN(C3CCOCC3)C[C@@H]1CO2 [Compound 31R]
